These compounds were tested against T1, human kidney renin (Homo sapiens, UniProt P00797) (assay: Radioimmunoassay Screen for Renin Inhibitors (in vitro angiotensin I generation, quantitated by radioimmunoassay)). Details: purified human plasma angiotensinogen, pH 6.0, one hour at 37° C., read-out: Renin Inhibiton IC50.
T1 construct: Human renin was prepared from human kidney; from tissue; host or cells: human kidney
T1 sequence (P00797 67-406): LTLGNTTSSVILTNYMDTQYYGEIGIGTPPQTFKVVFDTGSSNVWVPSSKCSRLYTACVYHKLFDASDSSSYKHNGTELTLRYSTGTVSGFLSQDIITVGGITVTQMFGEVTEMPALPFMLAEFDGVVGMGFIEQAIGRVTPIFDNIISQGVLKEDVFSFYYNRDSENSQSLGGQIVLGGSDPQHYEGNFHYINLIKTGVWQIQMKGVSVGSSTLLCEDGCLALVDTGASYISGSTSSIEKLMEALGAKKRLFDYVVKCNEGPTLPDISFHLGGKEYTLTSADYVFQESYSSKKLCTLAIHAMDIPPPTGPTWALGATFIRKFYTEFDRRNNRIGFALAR
Type: biochemical
Experimental: The in vitro method for the screening of anti-renin compounds involves, first, angiotensin I generation, and second, the quantitation of the angiotensin I produced by radioimmunoassay.
The incubation medium consisted of 20 μl of purified human plasma angiotensinogen (1); 10 μl of human kidney renin (2); 5 μl of phenylmethylsulfonyl fluoride; 10 μl of disodium EDTA (10 mM); 10 μl of antirenin compound (5×10^-3, 5×10^-4, 5×10^-5) in dimethylformamide, or ethanol and a suitable amount of maleate buffer (77 mM, pH 6.0) to make a final volume of 500 μl. The reaction mixture was incubated for one hour at 37° C. and the enzymatic reaction was stopped by placing the tube in ice-cold water. The angiotensin I generated during the incubation was measured by a radioimmunoassay plasma renin activity kit (Clinical Assays, Inc.).
The incubation medium consisted of either 100 μl aliquots of the above reaction mixture or a standard amount of angiotensin I; 1000 μl of phosphate buffer (100 mM, pH 7.6) and 100 μl of (^125 I)angiotensinin a gamma-coat, tube. After three hours of incubation at room temperature, the tubes were decanted, and the radioactivity of each tube was determined in a gamma counter. Duplicate determinations were performed for each incubation. The results were expressed in ng of angiotensin I generated per ml of generation medium per hour of incubation (ng/AI/ml/hr).
(1) The human plasma angiotensinogen derived from the blood of a person receiving oral contraceptive pills was purified by chromatography on a pepstatinaminohexyl-agarose column.
(2) Human renin was prepared from human kidney.

| Compound | IC50 [nM] |
| --- | --- |
| CC(C)C[C@H](NC(=O)[C@H](Cc1ccccc1)OC(=O)N1CCOCC1)C(=O)N[C@@H](CC1CCCCC1)[C@@H](O)c1cccs1 | 270 |
| CC(=O)N1CCN(C(=O)O[C@@H](Cc2ccccc2)C(=O)N[C@@H](CC(C)C)C(=O)N[C@@H](CC2CCCCC2)[C@@H](O)c2ccco2)CC1 | 42 |
| CC(C)C[C@H](NC(=O)[C@@H](CC(=O)N1CCOCC1)Cc1cccc2ccccc12)C(=O)N[C@@H](CC1CCCCC1)[C@@H](O)c1ccccn1 | 77 |
| CC(C)C[C@H](NC(=O)[C@@H](CC(=O)N1CCN(C)CC1)Cc1cccc2ccccc12)C(=O)N[C@@H](CC(C)C)[C@@H](O)c1nccs1 | 440 |
| CC(C)C[C@H](NC(=O)[C@@H](CC(=O)OC(C)(C)C)Cc1cccs1)C(=O)N[C@@H](CC(C)C)[C@@H](O)c1nccs1 | 100000 |
| CC(C)C[C@H](NC(=O)[C@H](Cc1ccccc1)OC(=O)N1CCOCC1)C(=O)N[C@@H](CC1CCCCC1)[C@@H](O)c1ccco1 | 100 |
| COc1cc(C[C@H](CC(=O)N2CCOCC2)C(=O)N[C@@H](Cc2c[nH]cn2)C(=O)N[C@@H](CC(C)C)[C@@H](O)c2nccs2)cc(OC)c1OC | 2800 |
| CC(C)C[C@H](NC(=O)[C@@H](CC(=O)NCCCN1CCOCC1)Cc1cccc2ccccc12)C(=O)N[C@@H](CC(C)C)[C@@H](O)c1nccs1 | 440 |
| CC(C)C[C@H](NC(=O)[C@H](Cc1ccccc1)OC(=O)N1CCC(=O)CC1)C(=O)N[C@@H](CC1CCCCC1)[C@@H](O)c1ccco1 | 58 |
| O=C(C[C@@H](Cc1cccc2ccccc12)C(=O)N[C@@H](Cc1cnc[nH]1)C(=O)N[C@@H](CC1CCCCC1)[C@@H](O)c1nccs1)NCCOc1ccccn1 | 580 |
| CC(C)C[C@H](NC(=O)[C@@H](CC(=O)OC(C)(C)C)Cc1ccccc1)C(=O)N[C@@H](CC1CCCCC1)[C@@H](O)c1nccs1 | 160 |
| CC(C)C[C@H](NC(=O)[C@@H](CC(=O)OC(C)(C)C)Cc1cccc2ccccc12)C(=O)N[C@@H](CC1CCCCC1)[C@@H](O)c1ccccn1 | 160 |
| O=C(N[C@@H](Cc1cnc[nH]1)C(=O)N[C@@H](CC1CCCCC1)[C@@H](O)c1nccs1)[C@@H](CC(=O)N1CCOCC1)Cc1cccc2ccccc12 | 35 |
| CC(C)C[C@H](NC(=O)[C@@H](CC(=O)NCc1cccnc1)Cc1cccc2ccccc12)C(=O)N[C@@H](CC(C)C)[C@@H](O)c1nccs1 | 170 |
| CC(C)C[C@H](NC(=O)[C@@H](CC(=O)N1CCOCC1)Cc1cccc2ccccc12)C(=O)N[C@@H](CC1CCCCC1)[C@@H](O)c1ccco1 | 8.8 |
| CC(C)C[C@H](NC(=O)[C@@H](CC(=O)NCCc1cccn1C)Cc1cccc2ccccc12)C(=O)N[C@@H](CC(C)C)[C@@H](O)c1nccs1 | 33 |
| O=C(N[C@@H](Cc1c[nH]cn1)C(=O)N[C@@H](CC1CCCCC1)[C@@H](O)c1nccs1)[C@@H](CC(=O)N1CCOCC1)Cc1ccccc1 | 15000 |
| CC(C)(C)OC(=O)C[C@@H](Cc1cccc2ccccc12)C(=O)N[C@@H](Cc1cnc[nH]1)C(=O)N[C@@H](CC1CCCCC1)[C@@H](O)c1nccs1 | 300 |
| CC(C)C[C@H](NC(=O)[C@@H](CC(=O)OC(C)(C)C)Cc1ccccc1)C(=O)N[C@@H](CC(C)C)[C@@H](O)c1nccs1 | 6500 |
| CC(C)C[C@H](NC(=O)[C@H](Cc1ccccc1)OC(=O)N1CCSCC1)C(=O)N[C@@H](CC1CCCCC1)[C@@H](O)c1cccs1 | 500 |
| CC(C)C[C@H](NC(=O)[C@@H](CC(=O)NCCN1CCCC1)Cc1cccc2ccccc12)C(=O)N[C@@H](CC(C)C)[C@@H](O)c1nccs1 | 740 |
| CC(C)C[C@H](NC(=O)[C@@H](CC(=O)NCCc1ccccn1)Cc1cccc2ccccc12)C(=O)N[C@@H](CC(C)C)[C@@H](O)c1nccs1 | 110 |
| CC(C)C[C@H](NC(=O)[C@@H](CC(=O)NCCc1ccccc1)Cc1cccc2ccccc12)C(=O)N[C@@H](CC(C)C)[C@@H](O)c1nccs1 | 730 |
| CC(C)C[C@H](NC(=O)[C@H](Cc1ccccc1)OC(=O)N1CCSCC1)C(=O)N[C@@H](CC1CCCCC1)[C@@H](O)c1ccccn1 | 840 |
| O=C(N[C@@H](Cc1cnc[nH]1)C(=O)N[C@@H](CC1CCCCC1)[C@@H](O)c1cccs1)[C@@H](CC(=O)N1CCOCC1)Cc1cccc2ccccc12 | 270 |
| CC(C)C[C@H](NC(=O)[C@@H](CC(=O)NCCOc1ccccn1)Cc1cccc2ccccc12)C(=O)N[C@@H](CC1CCCCC1)[C@@H](O)c1ccccn1 | 170 |

| Compound | IC50 [nM] |
| --- | --- |
| CC(C)C[C@H](NC(=O)[C@@H](CC(=O)NCCOc1ccccn1)Cc1cccc2ccccc12)C(=O)N[C@@H](CC(C)C)[C@@H](O)c1nccs1 | 44 |
| COc1cc(C[C@H](CC(=O)O)C(=O)N[C@@H](CC(C)C)C(=O)N[C@@H](CC(C)C)[C@@H](O)c2nccs2)cc(OC)c1OC | 6000 |
| CC(C)(C)NC(=O)C[C@@H](Cc1cccc2ccccc12)C(=O)N[C@@H](Cc1cnc[nH]1)C(=O)N[C@@H](CC1CCCCC1)[C@@H](O)c1nccs1 | 7100 |
| CC(C)C[C@H](NC(=O)[C@H](Cc1c[nH]cn1)NC(=O)[C@@H](CC(=O)NC(C)(C)C)Cc1ccccc1)[C@@H](O)c1nccs1 | 65000 |
| CC(C)C[C@H](NC(=O)[C@@H](CC(=O)O)Cc1cccc2ccccc12)C(=O)N[C@@H](CC1CCCCC1)[C@@H](O)c1ccccn1 | 3800 |
| CC(C)C[C@H](NC(=O)[C@H](Cc1ccccc1)OC(=O)N1CCOCC1)C(=O)N[C@@H](CC1CCCCC1)[C@@H](O)c1nccs1 | 11 |
| CC(C)C[C@H](NC(=O)[C@@H](CC(=O)NCCCn1ccnc1)Cc1cccc2ccccc12)C(=O)N[C@@H](CC(C)C)[C@@H](O)c1nccs1 | 210 |
| CC(C)C[C@H](NC(=O)[C@@H](CC(=O)O)Cc1cccc2ccccc12)C(=O)N[C@@H](CC(C)C)[C@@H](O)c1nccs1 | 550 |
| CC(C)C[C@H](NC(=O)[C@H](Cc1ccccc1)OC(=O)N1CCOCC1)C(=O)N[C@@H](CC1CCCCC1)[C@@H](O)c1ccccn1 | 770 |
| CC(C)C[C@H](NC(=O)[C@H](Cc1ccccc1)OC(=O)N1CCC2(CC1)OCCO2)C(=O)N[C@@H](CC1CCCCC1)[C@@H](O)c1ccco1 | 210 |
| CC(C)C[C@H](NC(=O)[C@@H](CC(=O)OC(C)(C)C)Cc1cccc2ccccc12)C(=O)N[C@@H](CC(C)C)[C@@H](O)c1nccs1 | 550 |
| CC(C)C[C@H](NC(=O)[C@@H](CC(=O)N1CCOCC1)Cc1ccccc1)C(=O)N[C@@H](CC1CCCCC1)[C@@H](O)c1nccs1 | 80000 |
| CC(C)(C)OC(=O)C[C@@H](Cc1cccc2ccccc12)C(=O)N[C@@H](Cc1cnc[nH]1)C(=O)N[C@@H](CC1CCCCC1)[C@@H](O)c1ccccn1 | 4800 |
| O=C(N[C@@H](Cc1cnc[nH]1)C(=O)N[C@@H](CC1CCCCC1)[C@@H](O)c1ccco1)[C@@H](CC(=O)N1CCOCC1)Cc1cccc2ccccc12 | 4.9 |
| CC(C)C[C@H](NC(=O)[C@@H](CC(=O)N1CCOCC1)Cc1cccc2ccccc12)C(=O)N[C@@H](CC(C)C)[C@@H](O)c1nccs1 | 250 |
| CC(C)C[C@H](NC(=O)[C@H](Cc1ccccc1)OC(=O)N1CCSCC1)C(=O)N[C@@H](CC1CCCCC1)[C@@H](O)c1ccco1 | 47 |
| CC(C)C[C@H](NC(=O)[C@H](CC1CCCCC1)OC(=O)N1CCOCC1)C(=O)N[C@@H](CC1CCCCC1)[C@@H](O)c1ccco1 | 180 |
| CC(C)C[C@H](NC(=O)[C@H](Cc1ccccc1)OC(=O)N1CCNC(=O)C1)C(=O)N[C@@H](CC1CCCCC1)[C@@H](O)c1ccco1 | 0.19 |
| CC(C)C[C@H](NC(=O)[C@@H](CC(=O)NCCCCn1ccnc1)Cc1cccc2ccccc12)C(=O)N[C@@H](CC(C)C)[C@@H](O)c1nccs1 | 93 |
| CC(C)C[C@H](NC(=O)[C@@H](CC(=O)NCCN1CCOCC1)Cc1cccc2ccccc12)C(=O)N[C@@H](CC(C)C)[C@@H](O)c1nccs1 | 400 |
| CC(C)C[C@H](NC(=O)[C@@H](CC(=O)NCCCN1CCCC1=O)Cc1cccc2ccccc12)C(=O)N[C@@H](CC(C)C)[C@@H](O)c1nccs1 | 74 |
| CC(C)C[C@H](NC(=O)[C@@H](CC(=O)N1CCOCC1)Cc1ccccc1)C(=O)N[C@@H](CC(C)C)[C@@H](O)c1nccs1 | 42000 |
| CC(C)C[C@H](NC(=O)[C@@H](CC(=O)NCc1ccccn1)Cc1cccc2ccccc12)C(=O)N[C@@H](CC(C)C)[C@@H](O)c1nccs1 | 120 |
| CC(C)C[C@H](NC(=O)[C@@H](CC(=O)NC(C)(C)C)Cc1ccccc1)C(=O)N[C@@H](CC(C)C)[C@@H](O)c1nccs1 | 67000 |
| Cn1cccc1CCNC(=O)C[C@@H](Cc1cccc2ccccc12)C(=O)N[C@@H](Cc1cnc[nH]1)C(=O)N[C@@H](CC1CCCCC1)[C@@H](O)c1nccs1 | 340 |
| CC(C)C[C@H](NC(=O)[C@@H](CC(=O)NCCN1CCCCC1)Cc1cccc2ccccc12)C(=O)N[C@@H](CC(C)C)[C@@H](O)c1nccs1 | 650 |
